Like-named read-outs stand apart in the source and are kept apart here.
Tests used:
[1] = biological target: Human μ-opioid receptor (Homo sapiens, UniProt P35372); assay: biochemical; format: binding
[2] = biological target: Human α2δ-1 subunit of Cav2.2 calcium channel (Homo sapiens, UniProt P54289); assay: biochemical; format: binding
Chain of Human α2δ-1 subunit of Cav2.2 calcium channel (P54289 25-1103): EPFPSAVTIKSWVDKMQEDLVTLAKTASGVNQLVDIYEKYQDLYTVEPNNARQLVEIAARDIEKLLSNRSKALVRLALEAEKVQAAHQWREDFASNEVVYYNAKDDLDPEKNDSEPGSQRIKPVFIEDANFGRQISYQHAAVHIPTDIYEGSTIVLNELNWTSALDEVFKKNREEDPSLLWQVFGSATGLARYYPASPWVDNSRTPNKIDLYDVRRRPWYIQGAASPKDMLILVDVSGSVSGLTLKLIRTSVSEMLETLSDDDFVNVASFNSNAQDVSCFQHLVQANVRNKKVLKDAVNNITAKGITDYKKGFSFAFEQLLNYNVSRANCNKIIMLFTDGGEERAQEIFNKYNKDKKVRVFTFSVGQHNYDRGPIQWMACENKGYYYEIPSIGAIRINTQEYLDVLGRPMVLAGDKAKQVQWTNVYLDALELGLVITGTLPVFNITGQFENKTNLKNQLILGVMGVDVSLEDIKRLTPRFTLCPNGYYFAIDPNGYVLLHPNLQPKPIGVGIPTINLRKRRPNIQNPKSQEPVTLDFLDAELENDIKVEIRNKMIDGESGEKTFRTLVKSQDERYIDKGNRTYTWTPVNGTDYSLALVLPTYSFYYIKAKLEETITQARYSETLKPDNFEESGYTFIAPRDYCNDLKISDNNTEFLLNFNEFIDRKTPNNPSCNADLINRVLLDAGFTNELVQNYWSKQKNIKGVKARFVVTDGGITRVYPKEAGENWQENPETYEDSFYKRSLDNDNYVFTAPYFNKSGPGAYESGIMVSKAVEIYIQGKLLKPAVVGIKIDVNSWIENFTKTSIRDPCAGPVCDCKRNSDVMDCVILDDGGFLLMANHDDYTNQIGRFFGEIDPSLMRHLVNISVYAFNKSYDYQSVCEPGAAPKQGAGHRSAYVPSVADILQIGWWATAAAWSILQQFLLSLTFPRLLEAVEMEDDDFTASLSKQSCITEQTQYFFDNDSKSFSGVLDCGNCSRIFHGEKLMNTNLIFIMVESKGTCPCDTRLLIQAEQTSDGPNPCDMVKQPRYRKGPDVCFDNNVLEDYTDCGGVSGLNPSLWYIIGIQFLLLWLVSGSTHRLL

Chain of Human μ-opioid receptor (P35372 whole entry): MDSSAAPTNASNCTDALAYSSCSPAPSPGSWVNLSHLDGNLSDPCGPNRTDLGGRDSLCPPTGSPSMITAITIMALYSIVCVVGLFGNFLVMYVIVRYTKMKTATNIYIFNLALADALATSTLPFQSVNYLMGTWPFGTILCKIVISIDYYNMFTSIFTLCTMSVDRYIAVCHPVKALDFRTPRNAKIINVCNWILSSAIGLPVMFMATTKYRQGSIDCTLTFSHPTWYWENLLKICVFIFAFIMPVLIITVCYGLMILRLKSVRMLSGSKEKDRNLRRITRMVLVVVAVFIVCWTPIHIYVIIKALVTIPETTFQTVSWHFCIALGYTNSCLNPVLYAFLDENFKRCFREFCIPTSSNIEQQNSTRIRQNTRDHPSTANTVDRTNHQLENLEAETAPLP

| Structure (SMILES) | Ki [1] [nM] | Ki [2] [nM] | Ki ([1]; read-out: μ-binding) [nM] | Ki ([2]; read-out: α2δ-1 binding) [nM] |
| --- | --- | --- | --- | --- |
| CCCC(c1nc2cc(C#N)ccc2c(=O)n1C)N1C[C@@H](C)N[C@@H](C)C1 (stereo partly drawn) [Example 176, 2-(1-((3S,5R)-3,5-Dimethylpiperazin-1-yl)butyl)-3-methyl-4-oxo-3,4-dihydroquinazoline-7-carbonitrile] | > 500 | < 500 | – | – |
| CCCC(c1nc2cnccc2c(=O)n1CCOC)N1C[C@@H](C)N[C@@H](C)C1 (stereo partly drawn) [Example 121, 2-(1-((3S,5R)-3,5-dimethylpiperazin-1-yl)butyl)-3-(2-methoxyethyl)pyrido[3,4-d]pyrimidin-4(3H)-one] | > 500 | < 500 | – | – |
| CCC[C@@H](c1nc2cc(O[C@H](CCNC)c3ccccc3)ccc2c(=O)n1C)N1C[C@@H](C)N[C@@H](C)C1 [Example 164, 2-((S)-1-((3S,5R)-3,5-Dimethylpiperazin-1-yl)butyl)-3-methyl-7-((R)-3-(methylamino)-1-phenylpropoxy)quinazolin-4(3H)-one] | > 500 | 500 to 5000 | – | – |
| CCCC(c1nc2c(Br)c(N(Cc3cccc(OC)c3)C(=O)OC(C)(C)C)ccc2c(=O)n1CC)N1C[C@@H](C)N[C@@H](C)C1 (stereo partly drawn) [Example 162, tert-Butyl (8-bromo-2-(1-((3S,5R)-3,5-dimethylpiperazin-1-yl)butyl)-3-ethyl-4-oxo-3,4-dihydroquinazolin-7-yl)(3-methoxybenzyl)carbamate] | – | – | > 500 | 500 to 5000 |
| CCC[C@H](c1nc2c(F)cc(F)cc2c(=O)n1C)N1CCN[C@@H](C)C1 [Example 225, 6,8-difluoro-3-methyl-2-((R)-1-((S)-3-methylpiperazin-1-yl)butyl)quinazolin-4(3H)-one] | 100 to 500 | 500 to 5000 | – | – |
| CCC[C@@H](c1nc2ccc(N3C[C@H](C)OC4(CCNCC4)C3)cc2c(=O)n1CC)N1C[C@@H](C)N[C@@H](C)C1 [Example 152, 2-((S)-1-((3S,5R)-3,5-Dimethylpiperazin-1-yl)butyl)-3-ethyl-6-((S)-2-methyl-1-oxa-4,9-diazaspiro[5.5]undecan-4-yl)quinazolin-4(3H)-one] | – | – | > 500 | 500 to 5000 |
| CCC[C@H](c1nc2ccc(F)c(F)c2c(=O)n1CC)N1CCN[C@@H](C)C1 [Example 218, 3-ethyl-5,6-difluoro-2-((R)-1-((S)-3-methylpiperazin-1-yl)butyl)quinazolin-4(3H)-one] | 100 to 500 | < 500 | – | – |
| CCCC(c1nc2cccnc2c(=O)n1CC)N1C[C@@H](C)N[C@@H](C)C1 (stereo partly drawn) [Example 27, 2-(1-((3S,5R)-3,5-dimethylpiperazin-1-yl)butyl)-3-ethylpyrido[3,2-d]pyrimidin-4(3H)-one] | > 500 | < 500 | – | – |
| CCC[C@@H](c1nc2ccc(N3C[C@@H](C)OC4(CCN(CCc5ccccc5)CC4)C3)cc2c(=O)n1CC)N1C[C@@H](C)N[C@@H](C)C1 [Example 154, 2-((S)-1-((3S,5R)-3,5-Dimethylpiperazin-1-yl)butyl)-3-ethyl-6-((R)-2-methyl-9-phenethyl-1-oxa-4,9-diazaspiro[5.5]undecan-4-yl)quinazolin-4(3H)-one] | > 500 | < 500 | – | – |
| CCC[C@H](c1nc2ccc(Br)cc2c(=O)n1CC)N1CCN[C@@H](CCC(=O)O)C1 [Example 108, 3-((S)-4-((R)-1-(6-bromo-3-ethyl-4-oxo-3,4-dihydroquinazolin-2-yl)butyl)piperazin-2-yl)propanoic acid] | – | – | > 500 | > 5000 |
| CCC[C@H](c1nc2c(F)cc(F)cc2c(=O)n1CC)N1CCN[C@@H](C)C1 [Example 201, 3-ethyl-6,8-difluoro-2-((R)-1-((S)-3-methylpiperazin-1-yl)butyl)quinazolin-4(3H)-one] | < 100 | < 500 | – | – |
| CCC[C@H](c1nc2cc(Cl)c(Cl)cc2c(=O)n1C)N1CCN[C@@H](C)C1 [Example 206, 6,7-dichloro-3-methyl-2-((R)-1-((S)-3-methylpiperazin-1-yl)butyl)quinazolin-4(3H)-one] | 100 to 500 | < 500 | – | – |
| CCC[C@H](c1nc2ccncc2c(=O)n1CC)N1CCN[C@@H](C)C1 [Example 66, 3-Ethyl-2-((R)-1-((S)-3-methylpiperazin-1-yl)butyl)pyrido[4,3-d]pyrimidin-4(3H)-one] | > 500 | < 500 | – | – |
| CCC[C@@H](c1nc2ccccc2c(=O)n1CCOC)N1C[C@@H](C)N[C@@H](C)C1 [Example 124, 2-((S)-1-((3S,5R)-3,5-dimethylpiperazin-1-yl)butyl)-3-(2-methoxyethyl)quinazolin-4(3H)-one] | > 500 | 500 to 5000 | – | – |
| CCC[C@H](c1nc2c(F)cc(OC)cc2c(=O)n1CC)N1CCN[C@@H](C)C1 [Example 46, 3-ethyl-8-fluoro-6-methoxy-2-((R)-1-((S)-3-methylpiperazin-1-yl)butyl)quinazolin-4(3H)-one] | 100 to 500 | < 500 | – | – |
| CCC[C@H](c1nc2ccc(Br)cc2c(=O)n1CC)N1C[C@H](C)N[C@@H](C)C1 [Example 228, 6-Bromo-2-((R)-1-((3S,5S)-3,5-dimethylpiperazin-1-yl)butyl)-3-ethylquinazolin-4(3H)-one] | < 100 | > 5000 | – | – |
| CCCC(c1nc2ccc(N3CCC(N)CC3)cc2c(=O)n1CC)N1C[C@@H](C)N[C@@H](C)C1 (stereo partly drawn) [Example 141, 6-(4-aminopiperidin-1-yl)-2-(1-((3S,5R)-3,5-dimethylpiperazin-1-yl)butyl)-3-ethylquinazolin-4(3H)-one] | > 500 | < 500 | – | – |

| Structure (SMILES) | Ki [1] [nM] | Ki [2] [nM] | Ki ([1]; read-out: μ-binding) [nM] | Ki ([2]; read-out: α2δ-1 binding) [nM] |
| --- | --- | --- | --- | --- |
| CCC[C@H](c1nc2ccc(Br)cc2c(=O)n1CC)N1CCN[C@@H](CO)C1 [Example 60, 6-bromo-3-ethyl-2-((R)-1-((R)-3-(hydroxymethyl)piperazin-1-yl)butyl)quinazolin-4(3H)-one] | > 500 | < 500 | – | – |
| CCC[C@H](c1nc2cc(O[C@H](CCNC)c3ccccc3)ccc2c(=O)n1C)N1C[C@@H](C)N[C@@H](C)C1 [Example 165, 2-((R)-1-((3S,5R)-3,5-dimethylpiperazin-1-yl)butyl)-3-methyl-7-((R)-3-(methylamino)-1-phenylpropoxy)quinazolin-4(3H)-one] | > 500 | 500 to 5000 | – | – |
| CCC[C@H](c1nc2c(F)cc(F)cc2c(=O)n1CC)N1CCNCC1 [Example 200, (R)-3-ethyl-6,8-difluoro-2-(1-(piperazin-1-yl)butyl)quinazolin-4(3H)-one] | 100 to 500 | < 500 | – | – |
| CCCC(c1nc2cc(Br)ccc2c(=O)n1C)N1C[C@@H](C)N[C@@H](C)C1 (stereo partly drawn) [Example 17, 7-bromo-2-(1-((3S,5R)-3,5-dimethylpiperazin-1-yl)butyl)-3-methylquinazolin-4(3H)-one] | > 500 | < 500 | – | – |
| CCCC(c1nc2c(C)cc(Br)cc2c(=O)n1CC)N1C[C@@H](C)N[C@@H](C)C1 (stereo partly drawn) [Example 20, 6-bromo-2-(1-((3S,5R)-3,5-dimethylpiperazin-1-yl)butyl)-3-ethyl-8-methylquinazolin-4(3H)-one] | – | – | > 500 | > 5000 |
| CCC[C@@H](c1nc2c(F)cc(OC)cc2c(=O)n1CC)N1CCNCC1 [Example 37, (S)-3-Ethyl-8-fluoro-6-methoxy-2-(1-(piperazin-1-yl)butyl)quinazolin-4(3H)-one] | > 500 | > 5000 | – | – |
| CCC[C@H](c1nc2ncc(Cl)cc2c(=O)n1CC)N1CCN[C@@H](C)C1 [Example 76, 6-Chloro-3-ethyl-2-((R)-1-((S)-3-methylpiperazin-1-yl)butyl)pyrido[2,3-d]pyrimidin-4(3H)-one] | 100 to 500 | < 500 | – | – |
| CCCC(c1nc2cc(C(=O)OC)ccc2c(=O)n1CC)N1C[C@@H](C)N[C@@H](C)C1 (stereo partly drawn) [Example 7, methyl 2-(1-((3S,5R)-3,5-dimethylpiperazin-1-yl)butyl)-3-ethyl-4-oxo-3,4-dihydroquinazoline-7-carboxylate] | 100 to 500 | < 500 | – | – |
| CCCC(c1nc2ccc(CN(C)CC(C)C)cc2c(=O)n1CC)N1C[C@@H](C)N[C@@H](C)C1 (stereo partly drawn) [Example 184, 2-(1-((3S,5R)-3,5-dimethylpiperazin-1-yl)butyl)-3-ethyl-6-((isobutyl(methyl)amino)methyl)quinazolin-4(3H)-one] | > 500 | < 500 | – | – |
| CCC[C@H](c1nc2c(F)cc(Br)cc2c(=O)n1CC)N1CCN[C@H](C)C1 [Example 47, 6-Bromo-3-ethyl-8-fluoro-2-((R)-1-((R)-3-methylpiperazin-1-yl)butyl)quinazolin-4(3H)-one] | > 500 | < 500 | – | – |
| CCCC(c1nc2ccc(CCN(C)CCC(C)C)cc2c(=O)n1CC)N1C[C@@H](C)N[C@@H](C)C1 (stereo partly drawn) [Example 175, 2-(1-((3S,5R)-3,5-dimethylpiperazin-1-yl)butyl)-3-ethyl-6-(2-(isopentyl(methyl)amino)ethyl)quinazolin-4(3H)-one] | > 500 | < 500 | – | – |
| CCCC(c1nc2c(Cl)cc(F)cc2c(=O)n1CC)N1CCNCC1 (stereo not drawn) [Example 90, 8-chloro-3-ethyl-6-fluoro-2-(1-(piperazin-1-yl)butyl)quinazolin-4(3H)-one] | 100 to 500 | > 5000 | – | – |
| CCC[C@H](c1nc2c(F)cc(F)c(F)c2c(=O)n1CC)N1CCN[C@@H](C)C1 [Example 226, 3-ethyl-5,6,8-trifluoro-2-((R)-1-((S)-3-methylpiperazin-1-yl)butyl)quinazolin-4(3H)-one] | 100 to 500 | 500 to 5000 | – | – |
| CCCC(c1nc2ccccc2c(=O)n1Cc1ccco1)N1C[C@@H](C)N[C@@H](C)C1 (stereo partly drawn) [Example 118, 2-(1-((3S,5R)-3,5-dimethylpiperazin-1-yl)butyl)-3-(furan-2-ylmethyl)quinazolin-4(3H)-one] | > 500 | < 500 | – | – |
| CCCC(c1nc2ccc(C)cc2c(=O)n1CCOC)N1C[C@@H](C)N[C@@H](C)C1 (stereo partly drawn) [Example 119, 2-(1-((3S,5R)-3,5-dimethylpiperazin-1-yl)butyl)-3-(2-methoxyethyl)-6-methylquinazolin-4(3H)-one] | > 500 | < 500 | – | – |
| CCC[C@@H](c1nc2ccc(Br)cc2c(=O)n1CC)N1CCN[C@@H](CO)C1 [Example 61, 6-bromo-3-ethyl-2-((S)-1-((R)-3-(hydroxymethyl)piperazin-1-yl)butyl)quinazolin-4(3H)-one] | > 500 | > 5000 | – | – |

Reference: patent US20220002314A1 (priority 2018, published 2022)
